Data reported in publication PMC11118615, “Cloning, Expression, Characterization and Immobilization of a Recombinant Carboxylesterase from the Halophilic Archaeon, Halobacterium salinarum NCR-1” (Biomolecules, 2024).

Molecular target: T1, rHsEst (recombinant carboxylesterase HsEst) (Halobacterium salinarum, UniProt Q9HPT9)
T1 construct: gene est; synthetic gene in pTA1392, N-terminal 6xHis-tag, expressed in Haloferax volcanii H1209, HisTrap purified
Experiment: spectrophotometric p-nitrophenol release, Michaelis-Menten nonlinear fit
Assay type: biochemical
Conditions: free enzyme; pH 8.0 Tris-HCl, 1 M NaCl, 30 °C (methods print 25 °C)
Source text: spectrophotometric p-nitrophenol release, Michaelis-Menten nonlinear fit on rHsEst (recombinant carboxylesterase HsEst)

T1 sequence (Q9HPT9 entry or part of it): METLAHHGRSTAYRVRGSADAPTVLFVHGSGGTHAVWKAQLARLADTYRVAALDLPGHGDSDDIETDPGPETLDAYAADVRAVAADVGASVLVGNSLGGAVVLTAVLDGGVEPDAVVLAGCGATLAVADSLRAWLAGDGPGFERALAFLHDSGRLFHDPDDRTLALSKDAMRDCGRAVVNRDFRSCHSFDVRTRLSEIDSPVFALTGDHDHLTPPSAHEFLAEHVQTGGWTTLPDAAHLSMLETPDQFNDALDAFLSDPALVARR

Structure (SMILES) | Km
CCCCC(=O)Oc1ccc([N+](=O)[O-])cc1 [pNPC5, p-nitrophenyl valerate] | 78 ± 7 µM
CC(=O)Oc1ccc([N+](=O)[O-])cc1 [pNPC2, p-nitrophenyl acetate] | 258 ± 51 µM
CCCCCCCC(=O)Oc1ccc([N+](=O)[O-])cc1 [pNPC8, p-nitrophenyl octanoate] | 245 ± 26 µM
